Data on 14 compounds can be found in US9433607B2, “Composition for prevention or treatment of cancer comprising N-methylenenaphtho[2,1-b]furan-2-carbohydrazide derivatives as an active ingredient” (KOREA RESEARCH INSTITUTE OF BIOSCIENCE AND BIOTECHNOLOGY, priority 2012, dated 2016).

In one assay the test system is HeLa cell line. Put plainly: Anti-proliferative activity in HeLa cells (MTT assay). In kind it is cell-based. As to conditions: HeLa cell line; for IC50: Homo sapiens. As to the method: Particularly, HeLa cell line (ATCC, USA) was treated with the compounds of Table 1 respectively, and then IC50 (the half maximal inhibitory concentration) was investigated (Table 1).
HeLa cells were treated with 100 nM, 250 nM, 500 nM and 1 μM of ethyl(2-methyl-3{(E)-[(naphtho[2,1-b]furan-2-ylcarbonyl)hydrazono]methyl}-1H-indole-1-yl)acetate or DMSO for 4 days. Then, the cell growth was confirmed by MTT assay. All the obtained numbers were calculated by normalizing the value of Day 0. The data presents the mean value obtained from the assay performed in triplicate.
Particularly, HeLa cells were distributed in a 96-well plate at the density of 2×10^3 cells/well. The cells were treated with DMSO or the compound of the present invention, to which MTT reagent was added at the concentration of 10 μl/well. 2 hours later, OD450 was measured, which became the value of Day 0. 4 days later, MTT reagent was added thereto again. 2 hours later, OD450 was measured. The data presents the mean value obtained from the assay performed in triplicate.

The subject of a further assay is K562. Nature of the assay: Cytotoxicity MTT assay, K562. In kind it is cell-based. As to conditions: Homo sapiens, 96 h, 4 days. How it is done:
(§1) Particularly, K562, MCF7 (Bio-Evaluation Center, Korea Research Institute of Bioscience and Biotechnology, Korea), and the multi-drug resistant cell lines thereof, K562/ADR and MCF7/ADR (Bio-Evaluation Center, Korea Research Institute of Bioscience and Biotechnology, Korea) were cultured in microtiter plate (1-3×10^3 cells/well). Then, the cells were treated with ethyl(2-methyl-3{(E)-[(naphtho[2,1-b]furan-2-ylcarbonyl)hydrazono]methyl}-1H-indole-1-yl)acetate, doxorubicin, or taxol, followed by culture for 4 days. Cytotoxicity was investigated by MTT assay by the same manner as described in Example <1-2>. IC50 was calculated by long-dose response curve. The data presents the mean value obtained from the assay performed in triplicate (Table 3).

For the next assay, the system named is K562/ADR. Put plainly: Cytotoxicity MTT assay, multi-drug resistant K562/ADR. In kind it is cell-based. Conditions: for IC50: Homo sapiens, 96 h, K562/ADR, MTT, 4 days; for resistance factor (number in the bracket): ratio of IC50 of K562/ADR to IC50 of parent K562. As to the method:
as §1
(§2) The resistance factor of the multi-drug resistant cell line indicates the ratio of IC50 of the multi-drug resistant cell line to IC50 of the parent cell line showing no resistance, which was presented as a number in the bracket.

The test system of another assay is MCF7. Nature of the assay: Cytotoxicity MTT assay, MCF7. Type of assay: cell-based. Conditions: Homo sapiens, 96 h, 4 days. How it is done:
as §1

In another assay the test system is MCF7/ADR. Put plainly: Cytotoxicity MTT assay, multi-drug resistant MCF7/ADR. Type of assay: cell-based. Conditions: for IC50: Homo sapiens, NCI/ADR-RES, 96 h, MCF7/ADR, MTT, 4 days; for resistance factor (number in the bracket): ratio of IC50 of MCF7/ADR to IC50 of parent MCF7. As to the method: as §1, §2
The test system of a further assay is HeLa cells. Nature of the assay: Immunofluorescence of intracellular microtubules and chromosomes. In kind it is cell-based. Conditions: 17 hours, Taxol 100 μM, nocodazole 200 ng/ml, compound 5 μM. As to the method:
To investigate the effect of ethyl(2-methyl-3{(E)-[(naphtho[2,1-b]furan-2-ylcarbonyl)hydrazono]methyl}-1H-indole-1-yl)acetate on intracellular microtubules, HeLa cells were treated with DMSO, Taxol (100 μM), nocodazole (200 ng/ml), or ethyl(2-methyl-3{(E)-[(naphtho[2,1-b]furan-2-ylcarbonyl)hydrazono]methyl}-1H-indole-1-yl)acetate (5 μM) for 17 hours. After fixing the cells, the cells were immuno-stained with Alexa Fluor 488-conjugated anti-tubulin antibody and Hoechst 33342 to confirm α-tubulin and chromosomes.

Assay [1] has as its system FVB/N mouse induced with skin tumor. Nature of the assay: DMBA/TPA induced skin tumor model. In kind it is in vivo. As to the method:
In this invention, the male FVB/N mice (6-7 weeks, Jackson Laboratory, USA) were raised under the condition of 12 hr bright lighting/12 hr dim lighting at the temperature of 24±2° C. with the humidity of 50±10% with water and feed provided freely. The care and process of the test animal was reviewed and approved by Institutional Animal Care and Use Committee (IACUC), Korea Research Institute of Bioscience and Biotechnology (KRIBB). DMBA (7,12-dimethylbenz[α]anthracene), TPA (12-O-tetradecanoylphorbol-13-acetate) and cholchicine were purchased from Sigma-Aldrich, and the synthesized ethyl(2-methyl-3{(E)-[(naphtho[2,1-b]furan-2-ylcarbonyl)hydrazono]methyl}-1H-indole-1-yl)acetate was provided from Dr. Thimmegowda.
Particularly, the dorsal skin of the said FVB/N mouse was shaved two days before the experiment. 100 μg of DMBA was added to 0.2 ml of acetone, which was treated to the mouse by single-local administration for 1 week to induce tumor. 5 fig of TPA was added to 0.2 ml of acetone, which was treated to the above mouse induced with tumor […] for 15 weeks to grow the tumor. 500 nM of ethyl(2-methyl-3{(E)-[(naphtho[2,1-b]furan-2-ylcarbonyl)hydrazono]methyl}-1H-indole-1-yl)acetate or cholchicine was dissolved in 0.2 ml of acetone, which was treated to the above mouse locally for 30 minutes each time for 15 weeks. Each group was composed of at least 10 mice and total 4 groups were prepared:
Group 1: DMBA and acetone treated group (negative control)
Group 2: DMBA and TPA treated group (positive control)
Group 3: DMBA/TPA and cholchicine treated group (experimental group 1)
Group 4: DMBA/TPA and ethyl(2-methyl-3{(E)-[(naphtho[2,1-b]furan-2-ylcarbonyl)hydrazono]methyl}-1H-indole-1-yl)acetate treated group (experimental group 2).
In addition, skin tumor such as papilloma was checked every week during the whole period of experiment. The tumor in the size of at least 2 mm was judged as positive. 15 weeks later, the mice were sacrificed with CO2. The skin tumor was extracted for histopathological/biochemical analysis.
The average number and the volume of tumor in each group were calculated.
Each mouse group was treated with different materials by the same manner as described in Example <8-2>, followed by observation for 15 weeks, and then the number of mice having skin tumor was counted. Tumor development rate was presented as %.
The mouse induced with skin tumor by the same manner as described in Example <8-2> was treated with DMBA, and then the induced tumors were observed and weighed for 15 weeks to produce the average weight of tumor.

On to `Cc1c(/C=N/NC(=O)c2cc3c(ccc4ccccc43)o2)c2ccccc2n1C` [A], for which, in the assay on HeLa cell line, the “decrease of anti-proliferative activity compared with STK899704” value is recorded as “two times decreased” and it took 0.44 µM to reach half-maximal inhibition (IC50).
Consider `C=CCn1c(C)c(/C=N/NC(=O)c2cc3c(ccc4ccccc43)o2)c2ccccc21` [B, (E)-N′-((1-allyl-2-methyl-1H-indol-3-yl)methylene)naphtho[2,1-b]furan-2-carbohydrazide], for which, in the assay on HeLa cell line, half-maximal inhibition (IC50) required 1.96 µM.
Same read-out and setting: the value for `Cc1c(/C=N/NC(=O)c2cc3c(ccc4ccccc43)o2)c2ccccc2n1CC#N` [C, (E)-N′-((1-(cyanomethyl)-2-methyl-1H-indol-3-yl)methylene)naphtho[2,1-b]furan-2-carbohydrazide] was 2.61 µM; that for `O=C(N/N=C/c1ccc(-c2ccc([N+](=O)[O-])cc2)o1)c1cc2c(ccc3ccccc32)o1` [Compound F, (E)-N′-((5-(4-nitrophenyl)furan-2-yl)methylene)naphtho[2,1-b]furan-2-carbohydrazide] was 2.88 µM; that for `O=C(N/N=C/c1ccc(-c2ccc(Br)cc2)o1)c1cc2c(ccc3ccccc32)o1` [D] was 2.24 µM.
`COc1cccc2c1C(=O)c1c(O)c3c(c(O)c1C2=O)C[C@@](O)(C(=O)CO)C[C@@H]3O[C@H]1C[C@H](N)[C@H](O)[C@H](C)O1` [Doxorubicin]: the IC50 in the assay on K562 is 3.3 µM; with K562/ADR, 3800 µM; with MCF7, 53 µM; in the assay on MCF7/ADR, 5230 µM. For the same compound, the “resistance factor (number in the bracket)” value is recorded as 1153 in the assay on K562/ADR and 98 in the assay on MCF7/ADR.
`O=C(N/N=C/c1ccc(-c2cccc(Cl)c2Cl)o1)c1cc2c(ccc3ccccc32)o1` [E] came in with an IC50 in the assay with HeLa cell line of 2.61 µM.
In the assay on HeLa cell line, `Cc1ccc(-c2ccc(/C=N/NC(=O)c3cc4c(ccc5ccccc54)o3)o2)cc1[N+](=O)[O-]` [G, (E)-N′-((5-(4-methyl-3-nitrophenyl)furan-2-yl)methylene)naphtho[2,1-b]furan-2-carbohydrazide] had a half-inhibitory concentration (IC50) of 3.11 µM.
The compound `O=C(N/N=C/c1ccc([N+](=O)[O-])o1)c1cc2c(ccc3ccccc32)o1` [H, (E)-N′-((5-nitrofuran-2-yl)methylene)naphtho[2,1-b]furan-2-carbohydrazide] yielded an IC50 with HeLa cell line of 5.4 µM.
In the assay on HeLa cell line, `O=C(N/N=C/c1ccc(OCc2ccccc2)cc1)c1cc2c(ccc3ccccc32)o1` [I, (E)-N′-(4-(benzyloxy)benzylidene)naphtho[2,1-b]furan-2-carbohydrazide] came in with an IC50 of 3.67 µM.
With `COc1cccc(/C=N/NC(=O)c2cc3c(ccc4ccccc43)o2)c1O` [J, (E)-N′-(2-hydroxy-3-methoxybenzylidene)naphtho[2,1-b]furan-2-carbohydrazide], the IC50 in the assay with HeLa cell line worked out at 3.97 µM.
Consider `CC(=O)O[C@H]1C(=O)[C@@]2(C)[C@H]([C@H](OC(=O)c3ccccc3)[C@]3(O)C[C@H](OC(=O)[C@H](O)[C@@H](NC(=O)c4ccccc4)c4ccccc4)C(C)=C1C3(C)C)[C@]1(OC(C)=O)CO[C@@H]1C[C@@H]2O` [Taxol], for which the 50% inhibitory concentration (IC50) with K562 amounted to 2 µM; with K562/ADR it was 1820 µM; in the assay on MCF7 it was 4.3 µM; in the assay with MCF7/ADR it was 1620 µM. Moreover, the figures for the “resistance factor (number in the bracket)” value in the assay with K562/ADR and in the assay with MCF7/ADR were 911 and 377, respectively. Further, the “effect on microtubules and chromosomes (immunostaining)” value with HeLa cells is on record as “strengthened the polymerization of tubulin so that multi-polar spindle fibers with condensed chromosomes were produced”.
Consider `COc1cc2c(c(OC)c1OC)-c1ccc(OC)c(=O)cc1[C@@H](NC(C)=O)CC2` [cholchicine, reference compound], for which the “number of skin tumor” value in assay [1] (500 nM in 0.2 ml acetone, local, 15 weeks) was “significantly reduced”. Further, the “weight of tumor compared with positive control” value in assay [1] (15 weeks) is reported as “significantly lighter”. Moreover, in assay [1] (15 weeks, 500 nM local), the “average volume of skin tumor reduced compared with positive control” value is on record as 31.5% and the “decrease of average number of skin tumor compared with positive control” value is listed as 2.86 times. Also, in assay [1] (tumor of at least 2 mm, positive control from 8th week), the “week to which tumor formation was postponed” value came out at 9 week.
`COC(=O)Nc1nc2ccc(C(=O)c3cccs3)cc2[nH]1` [nocodazole, reference compound]: the “effect on microtubules and chromosomes (immunostaining)” value with HeLa cells is “chromosomes were not fully condensed and microtubules were destroyed”.
